In PMC4206519, “Lack of Renoprotective Effect of Chronic Intravenous Angiotensin-(1-7) or Angiotensin-(2-10) in a Rat Model of Focal Segmental Glomerulosclerosis” (PLoS ONE, 2014):
pIC50: −log10 of the molar value. Like-named read-outs stand apart in the source and are kept apart here. Where no end group is shown, it is not given here.

Columns and labels:
[1] = system: uni-nephrectomized fawn-hooded hypertensive (FHH) rats; details: late disease model; for systolic blood pressure at 6 weeks of treatment / systolic blood pressure after 12 weeks of treatment: tail-cuff, mean ± SEM, SEM; for systolic blood pressure at 6 weeks of treatment / degree of glomerulosclerosis (semiquantitative score 0-4): captopril 100 mg/kg/d or losartan 20 mg/kg/d orally; for systolic blood pressure at 6 weeks of treatment: vehicle 179±2; for systolic blood pressure after 12 weeks of treatment: captopril 100 mg/kg/d, losartan 20 mg/kg/d orally, low-dose Ang-(2-10) 100 ng/kg/min iv, vehicle 185±3; for degree of glomerulosclerosis (semiquantitative score 0-4): vehicle 2.29±0.9
Procedure: (§1) Male FHH rats (In-house colony established from animals obtained from Charles River Laboratories, Wilmington, MA) were housed at a certified animal facility at 22°C and a 12∶12 h light/dark cycle. […] All surgeries were performed under isoflurane anesthesia (5% induction, 2% maintenance), at 37°C, and perioperative buprenorphine.
(§2) Following anesthesia, an incision was made in the left flank; the kidney was exposed and excised after ligation of the pedicle. […] Under anesthesia, a mini-pump was placed in a subcutaneous pocket. […] Pumps were replaced once during the treatment period. For the early disease model, five groups of rats were examined. […] For the late disease model, eight groups of rats were examined. […] The dosages of the Ang peptides were selected based on previous studies where Ang-(1-7) was similarly administered using implanted osmotic mini-pumps, [16], [17], [26]. […] Systemic blood pressure was measured by tail-cuff sphygmomanometer (Natume, Japan). Animals were placed on metabolic cages for urine collection at pre-specified time points. Urinary protein excretion was measured by the method of Lowry. Urinary sodium concentration was measured by ion-selective electrodes. At sacrifice, kidneys were harvested for histological analysis and measurement of Ang peptide concentration.
(§3) Upon harvesting, kidneys were cleared of blood by transcardiac perfusion of iced-cold phosphate buffered saline, excised and fixed in 4% paraformaldehyde, embedded in paraffin and processed for microscopic examination. Kidney sections (2-µm) were stained with hematoxylin-eosin (H&E), Jones silver and Periodic Acid Schiff (PAS). Slides were reviewed by an experienced renal pathologist (S.S) in a blinded fashion. Index of glomerulosclerosis was evaluated by a semiquantitative score based on the percentage of the glomerular tuft occupied by sclerotic lesions (0: no lesions, 1: lesions affecting less than 25% of the glomerulus, 2-3-4: lesions affecting 25–50%, 50–75% and 75–100% of the glomerulus, respectively). Tubular injury was rated based on presence of tubular atrophy, microcystic tubular dilation and interstitial fibrosis, from 0 to 3 (0: none; 1: mild; 2: moderate; 3: severe).
(§4) Blood pressure data were analyzed by repeated measures ANOVA. Differences within groups were analyzed using paired t-tests adjusted with Bonferroni modification. Differences between group means at each time point were tested using one-way ANOVA followed by Tukey-Kramer post-hoc test. Urinary protein excretions were log10 transformed and tested using a two-way ANOVA for repeated measures followed by Scheffe post hoc test for differences between the groups. Untransformed 24-hour urinary protein excretions at each time point were then tested using Kruskal-Wallis test. If a significant main effect was detected then differences between groups were tested using the Mann-Whitney U test with the probability adjusted using the Bonferroni modification. Urine sodium was also assessed by two-way ANOVA for repeated measures and pairwise multiple comparisons were made using the Holm-Sidak method. Multiple comparisons of Ang peptide levels were made using ANOVA when data were normally distributed and with log10 transformation when non-normally distributed. Post-hoc pairwise comparisons were made using the Holm-Sidak method. […] For Ang peptide measurements by LC/MS/MS, only values above the LLOQ were utilized for statistical comparisons.

[2] = system: uni-nephrectomized fawn-hooded hypertensive (FHH) rats; test: Model of FSGS, early disease protocol (blood pressure, proteinuria, histology, weights, urine); format: in vivo, rat
Procedure: as §1, §2, §3, §4

[3] = system: kidney homogenates of uni-nephrectomized FHH rats; test: Intrarenal Ang peptide content by parallel reaction monitoring (LC/MS/MS), late disease protocol; format: in vivo, rat; details: late disease model; for intrarenal level of the exogenously administered peptide (in words): kidneys harvested at sacrifice, chronic iv infusion 100-400 ng/kg/min, whole kidney homogenate, LC-MS/MS (PRM)
Procedure: Stable isotope labeled peptide standards (SIS, ^13C ^15N, New England Peptide, Gardner, MA) were resuspended in water to 1 nM and stored at −80C in Lo-Bind microcentrifuge tubes (Eppendorf) with the exception of Ang-I, which was resuspended in 30% acetonitrile and stored at 0.4 nM final concentration. Ang-(1-7), Ang-II, and Ang-(2-10) contained isotopically labeled valine. Ang-I contained isotopically labeled valine and proline. Peptide concentration was determined by amino acid analysis.
Tissues were stored frozen at −80°C in 15 ml Falcon tubes. Whole kidney tissues were submerged in liquid nitrogen for 5 minutes and kidney tissue was processed in a biopulverizer (MidSci, St. Louis, MO) to a fine powder. Pulverized tissue was transferred to a 5-ml glass dounce with a chilled spatula. Approximately 200 mg of tissue was used for peptide extraction. Four volumes of ice cold methanol (Burdick and Jackson, LC-MS Grade) were added to the tissue followed by a volume of water (Burdick and Jackson, LC-MS Grade) containing O-phenanthroline (Sigma Aldrich) and SIS peptides resulting in a final concentration of 1 mM and 1.8 nM, respectively. Tissue was homogenized in the dounce on ice for 1 minute. An aliquot of tissue homogenate was transferred to a 2-ml lo-bind microcentrifuge tube and stored at −20°C for at least 1 hour. Samples were further centrifuged for 10 minutes at 10,000×g at 4°C. An aliquot equal to approximately 60% of the total sample volume was transferred to a lo-bind tube equivalent to 100 mg of tissue (wet weight). From this aliquot, a volume equal to the wet weight of the starting tissue was transferred to a new lo-bind tube and diluted with ice cold water so that the final concentration of methanol was 40%. […] The filtrate volume was estimated by variable volume pipet and recorded to determine the fraction of starting volume collected. […] Declustering potential was set at 80 V. For parallel reaction monitoring (PRM) quantification, the dominant charge state of each peptide was determined and collision energies were optimized manually for SIS peptides (Table 1). […]

AT1a receptor = target: T1, AT1a receptor (Rattus norvegicus, UniProt P25095); test: Ang peptide radioligand binding assay, displacement of [125I]-Ang-II (AT1R/HEK); details: competition with [125I]-Ang-II, HEK-293 cells stably expressing AT1a receptor, 90 min on ice, log-logit analysis; average of n studies
T1 construct: expressed in transfected cells
T1 sequence (P25095 1-359): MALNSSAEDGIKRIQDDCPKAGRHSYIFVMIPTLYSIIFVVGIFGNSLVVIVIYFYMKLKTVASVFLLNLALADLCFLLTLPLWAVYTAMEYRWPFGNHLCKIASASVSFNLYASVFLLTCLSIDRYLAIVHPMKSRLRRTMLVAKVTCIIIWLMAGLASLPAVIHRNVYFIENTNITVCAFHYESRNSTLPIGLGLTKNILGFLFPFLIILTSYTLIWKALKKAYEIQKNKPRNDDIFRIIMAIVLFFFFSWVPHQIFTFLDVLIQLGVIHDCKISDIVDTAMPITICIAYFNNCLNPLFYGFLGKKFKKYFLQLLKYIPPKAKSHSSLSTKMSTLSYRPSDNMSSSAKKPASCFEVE
Procedure: (§5) HEK-293 cells stably expressing AT1a receptor were maintained and characterized as previously described. HEK-293 cells expressing AT2 receptors were transfected with pcDNA3.1 plasmid containing human AT2 receptor DNA using Lipofectamine 2000 at 1 µg DNA/well of a six-well plate according to manufacturer's protocol (Invitrogen, Carlsbad, CA). Transfected cells were maintained in Minimal Essential Medium (MEM) containing 10% fetal bovine serum and 1% antibiotic/fungizone/antimycotic with addition of geneticin (400 µg/ml) for stable transfectants. Confluent monolayers cells were deprived of serum (0.1% bovine serum albumin) for 2–24 hours before assay. […] After 90 min of incubation on ice, cells were gently washed 3 times with ice cold 0.9% sodium chloride followed by solubilization of the cell monolayer with 0.1 N NaOH/0.1% SDS. The solubilized sample was placed into a gamma counter for determination of cell-associated radioactivity. Log-logit analysis of the obtained competition curves was performed for determination of IC50 values.

human AT2 receptor = target: T2, human AT2 receptor (Homo sapiens, UniProt P50052); test: Ang peptide radioligand binding assay, displacement of [125I]-Ang-II (AT2R/HEK); details: competition with [125I]-Ang-II, HEK-293 cells stably transfected with human AT2 receptor, 90 min on ice, log-logit analysis; average of n studies
T2 construct: expressed in transfected cells
T2 sequence (P50052 1-363): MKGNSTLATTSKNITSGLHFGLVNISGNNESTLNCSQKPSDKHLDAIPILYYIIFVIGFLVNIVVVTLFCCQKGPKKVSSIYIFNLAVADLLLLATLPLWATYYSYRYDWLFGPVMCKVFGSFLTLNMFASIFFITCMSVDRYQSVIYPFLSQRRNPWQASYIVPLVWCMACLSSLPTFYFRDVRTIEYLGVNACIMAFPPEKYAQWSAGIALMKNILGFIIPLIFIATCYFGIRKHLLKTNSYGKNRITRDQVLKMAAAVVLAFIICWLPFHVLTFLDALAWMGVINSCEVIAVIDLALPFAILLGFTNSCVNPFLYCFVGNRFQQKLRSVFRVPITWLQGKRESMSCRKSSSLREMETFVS
Procedure: as §5

Molecule	systolic blood pressure at 6 weeks of treatment [1] [mmHg]	systolic blood pressure after 12 weeks of treatment [1] [mmHg]	degree of glomerulosclerosis (semiquantitative score 0-4) ([1]; week 30, after 12 weeks)	intrarenal level of the exogenously administered peptide (in words) [3]	pIC50 (AT1a receptor)	pIC50 (human AT2 receptor)	also measured
CC[C@H](C)[C@H](NC(=O)[C@H](Cc1ccc(O)cc1)NC(=O)[C@@H](NC(=O)[C@H](CCCNC(=N)N)NC(=O)[C@@H](N)CC(=O)O)C(C)C)C(=O)N[C@@H](Cc1cnc[nH]1)C(=O)N1CCC[C@H]1C(=O)N[C@@H](Cc1ccccc1)C(=O)O [Ang-II, Angiotensin (Ang) II]							survival (in words) ([1]; Ang-II low-dose 100 ng/kg/min iv, time mark = 6 weeks of treatment): no rats in this group survived beyond that time mark
C[C@H](CS)C(=O)N1CCC[C@H]1C(=O)O [Captopril, captopril]	156±7	145±5	0.88±0.2				degree of glomerulosclerosis (semiquantitative score 0-4) ([2]; after 8 weeks, Ang-II 100 ng/kg/min iv, captopril 100 mg/kg/d, mean ± SEM, vehicle 0.4±0.1, SEM): 0.1±0.1; tubular injury score (0-3) ([2]; after 8 weeks, Ang-II 100 ng/kg/min iv, captopril 100 mg/kg/d, mean ± SEM, vehicle 0.8±0.2): non-significant reduction; urinary protein excretion (proteinuria), median (range), after 4 weeks ([2]; captopril 100 mg/kg/d, Lowry method, n=5, vehicle 89 (31–188), p=0.014 vs vehicle): 14 (13–17) mg/day; urinary protein excretion (proteinuria), median (range), after 8 weeks ([2]; captopril 100 mg/kg/d, Lowry method, n=5, vehicle 243 (91–402), p=0.014 vs vehicle): 30 (25–33) mg/day; systolic blood pressure after 4 weeks of therapy ([2]; tail-cuff, captopril 100 mg/kg/d in drinking water, n=5, mean ± SEM, vehicle 161±4, SEM): 117±5 mmHg; systolic blood pressure after 8 weeks of therapy ([2]; tail-cuff, captopril 100 mg/kg/d in drinking water, n=5, mean ± SEM, vehicle 162±4, SEM): 134±3 mmHg; kidney Ang-II levels compared with vehicle (in words) ([3]; after 12 weeks, captopril 100 mg/kg/d, Mann-Whitney U test p=0.002, n=5/group): lower; progression of the degree of proteinuria between weeks 18 and 24 ([1]; captopril 100 mg/kg/d orally, vehicle +342±289, p=0.012): -225 ± 453 mg/day; tubular injury score (0-3) ([1]; week 30, after 12 weeks, captopril 100 mg/kg/d orally, printed as captopril vs. vehicle, p<0.05): 2.6±0.4
CCCCc1nc(Cl)c(CO)n1Cc1ccc(-c2ccccc2-c2nn[nH]n2)cc1 [Losartan, losartan]	155±5	146±5	1.28±0.7				
CC[C@H](C)[C@H](NC(=O)[C@H](Cc1ccc(O)cc1)NC(=O)[C@@H](NC(=O)[C@H](CCCNC(=N)N)NC(=O)[C@@H](N)CC(=O)O)C(C)C)C(=O)N[C@@H](Cc1c[nH]cn1)C(=O)N1CCC[C@H]1C(=O)O [Ang-(1-7)]				did not lead to a significant increase	5.42	7.22	
RVYIHPFHL [Ang-(2-10)]				did not lead to a significant increase	7.32	8.18	demise of treated animals ([1]; 400 ng/kg/min iv): 7 out of the 9; number of rats that survived until the end of the study ([1]; high-dose 400 ng/kg/min iv, 12 weeks, n=9 treated): 2
